Laboratory results published in US9499493B2, “2,4-pyrimidinediamine compounds and their uses” (Rigel Pharmaceuticals, Inc., priority 2002, dated 2016).
Counter-ions that a name gives are not always drawn.

Legend:
[1] = system: cultured human mast cells (CHMC); assay: CHMC low cell density ionomycin activation: tryptase assay; assay type: cell-based
[2] = system: cultured human mast cells (CHMC); assay: CHMC low cell density IgE activation: tryptase assay; assay type: cell-based; conditions: anti-IgE
In short: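 Read-out: tryptase released into supernatant, measured by substrate turnover over 30 min at RT. Low-density CHMC (1000-1500 cells/well, per donor degranulation activity) in MT buffer, 1 hr at 37° C, then anti-IgE challenge 30 min at 37° C.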

| Compound | IC50 [1] [µM] | IC50 [2] [µM] |
| --- | --- | --- |
| CNC(=O)COc1cccc(Nc2ncc(F)c(Nc3ccc4c(c3)C(O)CCO4)n2)c1 (stereo not drawn) [R950349, N4-(4-Hydroxy-3,4-dihydro-2H-1-benzopyran-6-yl)-5-fluoro-N2-[3-(N-methylamino)carbonylmethyleneoxyphenyl]-2,4-pyrimidinediamine] | > 10 | 0.078 |
| COC(=O)c1cc(Nc2nc(Cl)ncc2F)cc(C(F)(F)F)c1 [Compound R926861] | > 10 | > 10 |
| Cn1cc2cc(Nc3ncc(F)c(Nc4ccc5c(c4)OCCO5)n3)ccc2n1 [R935300, N4-(3,4-Ethyelenedioxyphenyl)-5-fluoro-N2-(2-methy-indazoline-5-yl)-2,4-pyrimidinediamine] | > 10 | 0.243 |
| Cn1ncc2cc(Nc3ncc(F)c(Nc4ccc5c(cnn5C)c4)n3)ccc21 [R935192, N2,N4-Bis(1-methyl-indazolin-5-yl)-5-fluoro-2,4-pyrimidinediamine] | > 10 | 0.337 |
| O=C(CNc1cccc(Nc2ncc(F)c(Nc3ccc4c(c3)OCCO4)n2)c1)NCCNCc1ccccc1 [R950198, N2-[3-(N-Benzylamino)ethyleneaminocarbonylmethyleneaminophenyl]-N4-(3,4-ethylenedioxyphenyl)-5-fluoro-2,4-pyrimidinediamine] | > 10 | 0.406 |
| Cn1ncc2cc(Nc3ncc(F)c(Nc4ccc5c(c4)NC(=O)C(C)(C)O5)n3)ccc21 [R940338, N4-[(2,2-Dimethyl-4H-benzo[1,4]oxazin-3-one)-6-yl]-5-fluoro-N2-(1-methylindazolin-5-yl)-2,4-pyrimidinediamine] | > 10 | 0.073 |
| CNC(=O)COc1cccc(Nc2ncc(F)c(Nc3cccc(N(C)C)c3)n2)c1 [R950264, N4-(3-Bis-N-methylaminophenyl)-5-fluoro-N2-[3-(N-methylamino)carbonylmethyleneoxyphenyl]-2,4-pyrimidinediamine] | > 10 | 0.198 |
| COc1ccc([C@@H](C)Nc2ncc(Br)c(N[C@H](C)c3ccc(OC)cc3)n2)cc1 [R935016, N2,N4-Bis[1(R)-4-methoxyphenylethyl]-5-bromo-2,4-pyrimidineamine] | > 10 | > 10 |
| O=C(c1cc2cc(Nc3ncc(F)c(Nc4ccc5oc(C(=O)N6CCOCC6)cc5c4)n3)ccc2o1)N1CCOCC1 [R950172, N2,N4-Bis[2-(N-morpholinocarbonyl)benzofurane-5-yl]-5-fluoro-2,4-pyrimidinediamine] | > 10 | 0.983 |
| COC(=O)c1cc(COc2cccc(Nc3ncc(F)c(Nc4ccc5c(c4)OCCO5)n3)c2)co1 [R935207, N4-(3,4-ethylenedioxyphenyl)-5-fluoro-N2-[3-(2-methoxycarbonyl-fur-4-yl)methyleneoxyphenyl]-2,4-pyrimidinediamine] | > 10 | > 10 |
| CCOC(=O)COc1ccc(Nc2ncc(F)c(Nc3ccc4c(c3)OCCO4)n2)cn1 [R926740, N2-[2-(Ethoxycarbonylmethyleneoxy)pyridin-5-yl]-N4-(3,4-ethylenedioxyphenyl)-5-fluoro-2,4-pyrimidinediamine] | > 10 | 4.42 |
| O=C(CNc1cccc(Nc2ncc(F)c(Nc3ccc4c(c3)OCCO4)n2)c1)N(CCO)CCO [R950199, N2-[3-(N,N′-Bis(2-N-hydroxyethyl)amino)carbonylmethyleneaminophenyl]-N4-(3,4-ethylenedioxyphenyl)-5-fluoro-2,4-pyrimidinediamine] | > 10 | 0.408 |
| O=[N+]([O-])c1cccc(Nc2nc(Nc3ccc4c(c3)NCCO4)ncc2F)c1 [R950253] | > 10 | 0.697 |
| CNC(=O)COc1cccc(Nc2ncc(F)c(Nc3cccc(N(CCO)CCO)c3)n2)c1 [R950266, N4-(3-Bis(N-hydroxyethyl)aminophenyl)-5-fluoro-N2-[3-(N-methylamino)carbonylmethyleneoxyphenyl]-2,4-pyrimidinediamine] | > 10 |  |
| O=C(COc1cccc(Nc2ncc(F)c(Nc3ccc4c(c3)OCCO4)n2)c1)NC1CC1 [R926848, N2-[3-(N-Cyclopropylamino)carbonylmethyleneoxyphenyl]-N4-(3,4-ethylenedioxyphenyl)-5-fluoro-2,4-pyrimidinediamine] | 10 |  |
| CNC(=O)COc1cc(Nc2ncc(F)c(Nc3cccc(O)c3)n2)ccc1C [R926757, 5-Fluoro-N4-(3-hydroxyphenyl)-N2-[4-methyl-3-[(N-methylamino)carbonylmethyleneoxy]phenyl]-2,4-pyrimidinediamine] | > 10 |  |
| COC(=O)c1ccc(Cn2cc3ccc(Nc4ncc(F)c(Nc5ccc6c(c5)OCCO6)n4)cc3n2)c(OC)c1 [R935336, N4-(3,4-Ethylenedioxyphenyl)-5-fluoro-N2-[2-(2-methoxy-4-carbomethoxybenzyl)indazoline-6-yl]-2,4-pyrimidinediamine] | > 10 |  |
| CNC(=O)COc1cccc(Nc2ncc(F)c(Nc3cccc([N+](=O)[O-])c3)n2)c1 [R950261, N4-(3-Nitrophenyl)-5-fluoro-N2-[3-(N-methylamino)carbonylmethyleneoxyphenyl]-2,4-pyrimidinediamine] | > 10 |  |

| Compound | IC50 [1] [µM] | IC50 [2] [µM] |
| --- | --- | --- |
| CNC(=O)C1Cc2cc(Nc3ncc(F)c(Nc4cccc(OC(F)(F)F)c4)n3)ccc2O1 (racemic) [R927040, (±)-N2-[2,3-Dihydro-(N-methylamino)carbonylbenzofuran-5-yl]-5-fluoro-N4-(3-trifluoromethoxyphenyl)-2,4-pyrimidinediamine] | > 10 |  |
| O=C(c1cc2cc(Nc3ncc(F)c(Nc4ccc5c(c4)OCCO5)n3)ccc2o1)N1CCCNCC1 [R926768, N4-(3,4-Ethylenedioxyphenyl)-5-fluoro-N2-[2-(N-homopiperazino)carbonylbenzofuran-5-yl]-2,4-pyrimidinediamine Hydrogen Chloride Salt] | > 10 |  |
| Oc1cccc(Nc2nc(Nc3ccc4[nH]ncc4c3)ncc2F)c1 [R935199, 5-Fluoro-N4-(3-hydroxyphenyl)-N2-(indazoline-5-yl)-2,4-pyrimidinediamine] | > 10 |  |
| N4-(3,4-Ethylenedioxyphenyl)-5-fluoro-N2-[3-(2-N-methylaminoethyl)phenyl]-2,4-pyrimidinediamine Hydrogen Chloride Salt [R926509] | > 10 |  |
| Cc1cc(Nc2nc(Nc3cccc(OCCN4CCOCC4)c3)ncc2F)cc(C)c1O [R940256, N4-(3,5-Dimethyl-4-hydroxyphenyl)-5-fluoro-N2-[3-[2-(N-morpholino)ethyloxy]phenyl]-2,4-pyrimidinediamine Hydrogen Chloride Salt] | > 10 |  |
| CNC(=O)COc1cccc(Nc2ncc(F)c(Nc3ccc4c(c3)C(N=[N+]=[N-])CCO4)n2)c1 (stereo not drawn) [R950383, N4-(4-Azido-3,4-dihydro-2H-1-benzopyran-6-yl)-5-fluoro-N2-[3-(N-methylamino)carbonylmethyleneoxyphenyl]-2,4-pyrimidinediamine] | > 10 |  |
| CSc1nc2ccc(Nc3ncc(F)c(Nc4cccc(O)c4)n3)cc2s1 [R950212, 5-Fluoro-N4-(3-hydroxyphenyl)-N2-[2-(methylthio)-1,3-benzothiaz-6-yl)-2,4-pyrimidinediamine] | > 10 |  |
| OCCCn1ncc2ccc(Nc3ncc(F)c(Nc4cccc(O)c4)n3)cc21 [R935293, 5-Fluoro-N4-(3-hydroxyphenyl)-N2-[1-(3-hydroxypropyl)indazoline-6-yl]-2,4-pyrimidinediamine] | > 10 |  |
| CC(C)NC(=O)COc1cccc(Nc2ncc(F)c(Nc3ccc4c(c3)OCCO4)n2)c1 [R926830, N4-(3,4-Ethylenedioxyphenyl)-5-fluoro-N2-[3-(N-isopropylamino)carbonylmethyleneoxyphenyl]-2,4-pyrimidinediamine] | 10 |  |
| Fc1cnc(Nc2ccc3cn[nH]c3c2)nc1Nc1cccc(OC(F)(F)F)c1 [R935363, 5-Fluoro-N2-(indazoline-6-yl)-N4-(3-trifluoromethoxyphenyl)-2,4-pyrimidinediamine] | > 10 |  |
| CCOc1ccc(Nc2nc(Nc3cccc(OCC(=O)NC)c3)ncc2F)cc1S(=O)(=O)O [R950389, N4-(4-Ethoxy-3-hydroxysulfonylphenyl)-5-fluoro-N2-[3-(N-methylamino)carbonylmethyleneoxyphenyl]-2,4-pyrimidinediamine] | > 10 |  |
| O=C(c1cc2cc(Nc3ncc(F)c(Nc4ccc5c(c4)OCCO5)n3)ccc2o1)N1CCCNCC1 [R926767, N4-(3,4-Ethylenedioxyphenyl)-5-fluoro-N2-[2-(N-homopiperazino)carbonylbenzofuran-5-yl]-2,4-pyrimidinediamine] | > 10 |  |
| Cc1cc(Nc2nc(Nc3cccc(OCCN4CCOCC4)c3)ncc2F)cc(C)c1O [R940255, N4-(3,5-Dimethyl-4-hydroxyphenyl)-5-fluoro-N2-[3-[2-(N-morpholino)ethyleneoxy]phenyl]-2,4-pyrimidinediamine] | > 10 |  |
| O=C(c1cc2cc(Nc3ncc(F)c(Nc4ccc5c(c4)OCCO5)n3)ccc2o1)N1CCNCC1 [R926499, N4-(3,4-Ethylenedioxyphenyl)-5-fluoro-N2-[2-(N-piperazino)carbonylbenzofuran-5-yl]-2,4-pyrimidinediamine] | > 10 |  |
| O=C(CNc1cccc(Nc2ncc(F)c(Nc3ccc4c(c3)OCCO4)n2)c1)NCCO [R950195, N4-(3,4-Ethylenedioxyphenyl)-5-fluoro-N2-[3-(N-2-hydroxyethyleneamino)carbonylmethyleneaminophenyl]-5-fluoro-2,4-pyrimidinediamine] | > 10 |  |
| CCOC(=O)CCn1ncc2cc(Nc3ncc(F)c(Nc4ccc(OC(F)(F)F)c(Cl)c4)n3)ccc21 [R935354, N4-(3-Chloro-4-trifluoromethoxy-phenyl)-N2-[1-(2-ethoxycarbonylethyl)indazoline-5-yl]-5-fluoro-2,4-pyrimidinediamine] | > 10 |  |
| COC(=O)c1cc2cc(Nc3ncc(F)c(Nc4ccc5cnn(CCC(=O)O)c5c4)n3)ccc2o1 [R935296, N4-[1-(2-carboxyethyl)indazolne-6-yl]-5-fluoro-N2-(2-methoxycarbonylbenzofur-5-yl)-2,4-pyrimidinediamine] | > 10 |  |
